Test results reported in publication PMC3266667 (Frontiers in Pharmacology, 2012).
Where two headings read alike, the source gives them in different places.

Biological target: hERG K+ channels (Homo sapiens, UniProt Q12809)
[1] = Patchliner, CHO-hERG cells, physiological temperature

hERG K+ channels, sequence (Q12809 whole entry): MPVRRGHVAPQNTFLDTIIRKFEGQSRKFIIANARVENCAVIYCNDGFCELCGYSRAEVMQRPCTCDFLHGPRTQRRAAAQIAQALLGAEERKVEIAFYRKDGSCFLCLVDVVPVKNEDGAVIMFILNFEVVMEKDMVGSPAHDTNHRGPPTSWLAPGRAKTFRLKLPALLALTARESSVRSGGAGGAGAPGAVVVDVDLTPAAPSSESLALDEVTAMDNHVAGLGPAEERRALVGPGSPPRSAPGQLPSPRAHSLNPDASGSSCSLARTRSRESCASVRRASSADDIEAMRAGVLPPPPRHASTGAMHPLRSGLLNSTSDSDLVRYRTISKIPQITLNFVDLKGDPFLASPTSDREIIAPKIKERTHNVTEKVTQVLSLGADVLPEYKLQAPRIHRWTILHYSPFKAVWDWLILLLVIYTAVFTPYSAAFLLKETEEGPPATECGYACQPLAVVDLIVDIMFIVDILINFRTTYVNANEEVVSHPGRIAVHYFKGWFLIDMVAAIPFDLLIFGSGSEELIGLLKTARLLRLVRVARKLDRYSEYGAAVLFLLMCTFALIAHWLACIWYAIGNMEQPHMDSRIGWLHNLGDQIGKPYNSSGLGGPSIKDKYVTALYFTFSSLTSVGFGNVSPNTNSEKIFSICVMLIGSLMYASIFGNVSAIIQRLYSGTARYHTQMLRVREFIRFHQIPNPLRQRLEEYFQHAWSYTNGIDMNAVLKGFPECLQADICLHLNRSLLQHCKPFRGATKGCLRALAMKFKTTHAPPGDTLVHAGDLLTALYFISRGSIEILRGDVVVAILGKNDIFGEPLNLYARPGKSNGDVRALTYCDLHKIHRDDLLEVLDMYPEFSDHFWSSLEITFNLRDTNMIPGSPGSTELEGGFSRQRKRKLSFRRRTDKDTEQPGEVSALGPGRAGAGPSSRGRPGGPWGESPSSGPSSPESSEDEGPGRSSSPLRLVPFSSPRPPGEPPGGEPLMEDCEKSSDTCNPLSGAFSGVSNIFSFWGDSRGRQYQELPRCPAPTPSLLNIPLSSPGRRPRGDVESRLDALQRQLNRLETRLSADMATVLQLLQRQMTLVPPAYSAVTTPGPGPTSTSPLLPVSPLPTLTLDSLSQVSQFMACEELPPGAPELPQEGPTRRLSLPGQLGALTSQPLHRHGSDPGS

Row | SMILES | effect on the hERG current (in words) | effect on the hERG current (in words) [1] | further results
1 | Cc1cc2c(s1)Nc1ccccc1N=C2N1CCN(C)CC1 [Olanzapine] | intermediate effect on the hERG current | – | –
2 | C[C@H](CS)C(=O)N1CCC[C@H]1C(=O)O [Captopril] | – | did not affect the hERG current up to the highest concentration tested | –
3 | COc1cc(N)c(Cl)cc1C(=O)NC1CCN(CCCOc2ccc(F)cc2)CC1OC (centres unmarked) [Cisapride] | – | – | effect on the hERG current (in words) (human): IC50 values in the low and mid-nanomolar range
4 | CC(C)NCC(O)c1ccc(NS(C)(=O)=O)cc1 (racemic) [D,L-Sotalol] | intermediate effect on the hERG current | – | –
5 | CC(C)Cc1ccc(C(C)C(=O)O)cc1 (centres unmarked) [Ibuprofen] | – | did not affect the hERG current up to the highest concentration tested | –
